# Laboratory results reported in patent US11638427B2, “Methods and compositions for altering secondary metabolites in plants” (Impello Biosciences, Inc, priority 2020, dated 2023).
# Experiments:
# Nectria pseudotrichia = assay: Mold growth on jasmonate-infused plates, mold 2 isolated from avocado; format: cell-based; settings: various concentrations in plates
# Method: (§1) MDJ (TCI, CAS No.: 24851-98-7) and CJ were infused into potato dextrose agar (PDA, VWR Cat No.: 90003-494) petri dishes (100×15 mm VWR, Cat No: 25384-094) at concentrations ranging from 1 mM, 4.25 mM, and 10 mM. Each treatment was prepared using a technical grade stock solution of pure chemical (CJ or MDJ) diluted with TWEEN®-20 (VWR, CAS No.: […]). Culturable oyster mushroom and seedling mold served to create fungal mycelial plugs using a sterile 1 mL pipette tip (Eppendorf, Cat No.: 022491458) held upside down. The tips were used to make circle excisions (i.e., fungal plugs) from a mycelial mat grown on PDA with no biochemical infusions. Fungal pugs were then transferred to PDA infused with varying concentrations of CJ or MDJ, and control plates (no CJ or MDJ infusion) to monitor fungal growth at room temperature over time.
# (§2) Based on the above results in Cannabis spp., additional fungi from various crops was sampled and tested. Plates comprising various concentrations of MDJ or MJ were prepared as described above.
# [1] = system: Pencicillium sclerotigenum; assay: Mold growth on jasmonate-infused plates, mold isolated from sweet potato; format: cell-based; settings: 1 mM, 5 mM, 10 mM, or 20 mM in plates
# Method: as §1, §2
# Botrytis spp. = assay: Mold growth on jasmonate-infused plates, mold isolated from strawberry; format: cell-based; settings: 1 mM, 5 mM, 10 mM, or 20 mM in plates
# Method: as §1, §2
# avocados = assay: Fruit MDJ dips, 2 weeks observation; format: in vivo
# Method: (§3) For fruit MDJ dips, all fruits were purchased from a local market as certified organic on 4/13/2021. Before any treatments, all fruits were submerged in boiling water to melt off any non-natural waxy coating then dried with a washcloth. Once fruits were clean and dry, they were submerged in varying concentrations of methyl dihydrojasmonate solutions. Each solution was prepared from a 1M MDJ Tween 20 stock solution diluted with RO water. 500 ml of each solution was prepared and reused for the different fruits. Each fruit was submerged for 20 seconds and then left to dry on a paper towel. After the fruits were dry the paper towels were removed and fruits left on the lab bench at room temperature grouped by treatment but not touching and monitored for visual differences for 2 weeks. The pineapple was the only fruit that was not fully submerged but instead sprayed till drip with the varying concentration of MDJ/Tween 20 solution. Then left to dry and monitored the same as the other fruits.
# (§4) Treatments and Sample Sizes:
# (§5) Control, water—4 lemons, 2 oranges, 1 pineapple, 1 mango, 4 strawberries, 2 grapes (˜10 grapes/bundle), 2 oranges, 4 avocados
# (§6) [5] mM MDJ—4 lemons, 3 oranges, 1 pineapple, 1 mango, 4 strawberries, 2 grapes, 2 oranges, 4 avocados
# (§7) [10] mM MDJ—4 lemons, 3 oranges, 0 pineapple, 1 mango, 4 strawberries, 2 grapes, 2 oranges, 4 avocados
# (§8) [20] mM MDJ—5 lemons, 3 oranges, 1 pineapple, 1 mango, 4 strawberries, 2 grapes, 2 oranges, 4 avocados
# (§9) Qualitative observations like color changes, firmness, mold appearance were monitored and at the end of the two weeks all fruits were cut in half to record and further observations. Penetrometer readings were recorded in the last week of observations.
# blood oranges = assay: Fruit MDJ dips, 2 weeks observation; format: in vivo; settings: dip 5, 10, 20 mM; observation period 2 weeks
# Method: as §3, §4, §5, §6, §7, §8, §9
# grapes = assay: Fruit MDJ dips, 2 weeks observation; format: in vivo; settings: dip 5, 10, 20 mM
# Method: as §3, §4, §5, §6, §7, §8, §9
# lemons = assay: Fruit MDJ dips, 2 weeks observation; format: in vivo; settings: dip 5, 10, 20 mM for 20 seconds; 2 weeks at room temperature
# Method: as §3, §4, §5, §6, §7, §8, §9
# mangoes = assay: Fruit MDJ dips, 2 weeks observation; format: in vivo; settings: one fruit per group
# Method: as §3, §4, §5, §6, §7, §8, §9
# oranges = assay: Fruit MDJ dips, 2 weeks observation; format: in vivo; settings: dip 5, 10, 20 mM
# Method: as §3, §4, §5, §6, §7, §8, §9
# pineapples = assay: Fruit MDJ spray till drip, 2 weeks observation; format: in vivo
# Method: as §3, §4
# Control, water—4 lemons, 2 oranges, 1 pineapple, 1 mango, 4 strawberries, 2 grapes (˜10 grapes/bundle), 2 oranges, 4 avocados […]
# as §9
compound,measurement,setting,value
"CCCCCC1C(=O)CCC1CC(=O)OC (centres unmarked) [MDJ, methyl dihydrojasmonate]",growth of mold isolated from avocado (mold 2),Nectria pseudotrichia,effective at preventing the growth
same,growth of mold isolated from sweet potato,[1],effective at preventing the growth
same,growth of mold isolated from strawberry,Botrytis spp.,effective at preventing the growth
same,browning when the fruits were cut open,avocados; dip 5 mM,least signs of browning
same,external browning,avocados; dip 10 mM and 20 mM groups (and control group),more external browning
same,mold,blood oranges,no mold in any of the treatment groups
same,mold or observable difference between groups,grapes,"did not exhibit any mold, or observable difference between groups"
same,visual differences externally or internally,lemons,no distinct visual differences
same,"internal browning when cut open, relative to the control group",mangoes; dip 5 mM,slightly less
same,"internal browning when cut open, relative to the control group",mangoes; dip 10 mM,less still
same,internal browning when cut open,mangoes; dip 20 mM,no clear browning
same,mold,oranges,no appearance of mold
same,crown appearance,"pineapples; spray till drip 20 mM, control had the greenest crown, followed by 5 mM",most dried out crown
same,mold at the base of the pineapple,"pineapples; spray till drip, control, 5 mM and 20 mM groups, one pineapple per group",showed some mold
